Experimental data taken from publication PMC2504886 (The Journal of Biological Chemistry, 2008).

Target: T1, T. maritima CopA (WT CopA) (Thermotoga maritima, UniProt Q9WYF3)
T1 sequence (Q9WYF3 1-726): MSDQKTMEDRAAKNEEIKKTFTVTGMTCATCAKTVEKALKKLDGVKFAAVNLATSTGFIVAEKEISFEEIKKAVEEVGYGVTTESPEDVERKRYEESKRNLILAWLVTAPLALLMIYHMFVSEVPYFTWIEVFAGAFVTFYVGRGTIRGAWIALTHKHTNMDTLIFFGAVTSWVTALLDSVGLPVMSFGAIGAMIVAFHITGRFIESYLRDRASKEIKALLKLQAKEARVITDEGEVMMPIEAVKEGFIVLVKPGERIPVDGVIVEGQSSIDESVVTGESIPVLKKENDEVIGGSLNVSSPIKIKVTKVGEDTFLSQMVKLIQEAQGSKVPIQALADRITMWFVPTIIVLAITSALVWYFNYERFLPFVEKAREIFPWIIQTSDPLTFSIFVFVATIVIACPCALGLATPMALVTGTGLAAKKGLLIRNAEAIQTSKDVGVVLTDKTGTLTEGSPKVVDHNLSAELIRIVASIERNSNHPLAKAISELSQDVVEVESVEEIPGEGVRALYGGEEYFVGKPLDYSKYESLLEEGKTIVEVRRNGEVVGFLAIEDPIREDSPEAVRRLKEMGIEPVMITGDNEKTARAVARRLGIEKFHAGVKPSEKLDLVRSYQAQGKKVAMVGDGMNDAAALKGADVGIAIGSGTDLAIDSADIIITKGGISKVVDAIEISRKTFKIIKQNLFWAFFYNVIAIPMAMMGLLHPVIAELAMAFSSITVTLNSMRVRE
Test: phosphoenzyme
Assay type: binding

Kd: 3.3 µM
SMILES: O=P(O)(O)O [Pi]
